Laboratory results: ChEMBL document CHEMBL1201862, “PubChem BioAssay data set” (2004)
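Briefly, cells in 96-well plates were exposed to five compound concentrations for 48 h, and endpoints were estimated by linear interpolation. Abbreviation: GI50, concentration required for 50% inhibition of growth.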 Calls of active or inactive are those of the source. Rule as the data show it: active = GI50 up to about 1.1 µM and inactive = higher.

Experiments:
Assay in all cases: NCI-60 cell line screen, 48 h
[1] = system: HT-29
[2] = system: MOLT-4
[3] = system: SK-MEL-2
[4] = system: U-251
[5] = system: HCT-116
[6] = system: M14
[7] = system: TK-10
[8] = system: UACC-257
[9] = system: PC-3
[10] = system: NCI-H23
[11] = system: HL-60
[12] = system: SR
[13] = system: OVCAR-4
[14] = system: OVCAR-5
[15] = system: Hs-578T
[16] = system: HOP-62
[17] = system: CAKI-1
[18] = system: SF-539
[19] = system: COLO 205

Measured: GI50

Cn1c(=O)c2c(nc(C(=N)SCC(=O)O)n2C)n(C)c1=O
inactive: [1] 48.2 µM | [2] 22.2 µM | [3] 39.2 µM | [4] 95.9 µM | [5] 26.5 µM | [6] 43.5 µM | [7] 40.6 µM | [8] 29.1 µM | [9] 48.4 µM | [10] 27.7 µM | [11] 27.7 µM | [12] 22.7 µM | [13] 24.4 µM | [14] 47.5 µM | [15] 97.7 µM | [16] 56.5 µM | [17] 26 µM | [18] 32.8 µM | [19] 31.3 µM

Nc1ccc(S(=O)(=O)Nc2nc3ccccc3nc2Nc2ccc(S(N)(=O)=O)cc2)cc1
inactive: [1] 57.8 µM | [2] 15.4 µM | [3] 19.1 µM | [4] 27.7 µM | [5] 38.5 µM | [6] 36.3 µM | [7] 44.6 µM | [8] 46 µM | [9] 34.9 µM | [10] 20.5 µM | [11] 25.1 µM | [12] 37 µM | [13] 2.45 µM | [14] > 100 µM | [15] 23 µM | [16] 29.2 µM | [17] 68.7 µM | [18] 31.8 µM | [19] 52.6 µM

O=C1/C(=N/N=C(c2ccccc2)c2ccccc2)c2ccccc2-c2ccccc21
inactive: [1] > 100 µM | [2] 22.5 µM | [3] > 100 µM | [4] 85.7 µM | [5] 52.1 µM | [6] > 100 µM | [7] 75.5 µM | [8] > 100 µM | [9] 64 µM | [10] 74 µM | [11] > 100 µM | [12] 51.2 µM | [13] 77.3 µM | [14] > 100 µM | [15] 29.6 µM | [16] > 100 µM | [17] 37.6 µM | [18] > 100 µM | [19] > 100 µM

COC(=O)[C@@]1(Cc2ccc(OC(C)=O)cc2)Cc2cc3ccccc3n2N1
inactive: [1] 36 µM | [2] 26.8 µM | [3] 18.2 µM | [4] 30.1 µM | [5] 35 µM | [6] 39.4 µM | [7] 33.7 µM | [8] 17.3 µM | [9] 30 µM | [10] 25.3 µM | [11] 20.3 µM | [12] 13.5 µM | [13] 75.5 µM | [14] 94.4 µM | [15] 82.8 µM | [16] > 100 µM | [17] > 100 µM | [18] 58.7 µM | [19] 31.2 µM
